Columns and labels:
[1] = target: T1, EGFR mutant (C797S) (Homo sapiens, UniProt P00533, C797S); experiment: Mass spectrometry for EGFR mutant (C797S); type: binding; conditions: 10-fold excess of compound, up to 3 hrs, MALDI
T1 construct: Amino acids 696 to 1022 of the EGFR-WT kinase domain; six-histidine tag (TEV-cleavable) (C); made in house; host or cells: SF21 insect cells (baculovirus; P1 stocks in SF9)
Description: (§1) Amino acids 696 to 1022 of the EGFR-WT kinase domain (NM_005228, NP_005219.2) was subcloned into the NcoI and HindIII sites of the pFastHTa vector (Invitrogen, Carlsbad, Calif.). To make the EGFR-mutant protein, the cysteine at position 797 was changed to a serine using the Stratagene QuikChange kit (Stratagene, Cedar Creek, Tex.), according to manufacturer's instructions.
(§2) EGFR wild type and EGFR mutant (C797S) was incubated with 10-fold excess of compound I-1 for 1 hr and 3 hrs. 1 ul aliquots of the samples (total volume 5-8 ul) were diluted with 10 ul of 0.1% TFA prior to micro C4 ZipTipping directly onto the MALDI target using Sinapinic acid as the desorption matrix (10 mg/ml in 0.1% TFA:Acetonitrile 50:50). […] (See FIG. 8).

[2] = target: T2, EGFR wild type (Homo sapiens, UniProt P00533); experiment: Mass spectrometry for EGFR wild type (covalent modification); type: binding; conditions: 10-fold excess of compound, 1 hr and 3 hrs, MALDI
T2 construct: Amino acids 696 to 1022 of the EGFR-WT kinase domain; six-histidine tag (TEV-cleavable) (C); made in house; host or cells: SF21 insect cells (baculovirus; P1 stocks in SF9)
Description: as §1, §2

[3] = system: EGFR (ErbB1) in A431 human epidermoid carcinoma cells; experiment: Washout experiment for EGFR activity in A431 cells; type: cell-based
Description: A431 human epidermoid carcinoma cells were grown in 6-well plates to 90% confluence and then incubated in serum-free media for 18 hr. Duplicate sets of cells were treated with 1 μM designated compound for 1 hr. One set of cells was then stimulated with 100 ng/ml EGF for 5 min, and extracts were made as described. The other set of cells was washed free of the compound with warmed compound-free medium, incubated for 2 hr, washed again, incubated another 2 hr, washed again, and then incubated another 2 hr washed again and incubated for additional 2 hr and then stimulated with EGF.

[4] = target: T3, ErbB4 kinase domain (Homo sapiens, UniProt Q15303); experiment: Mass spectrometry for ErbB4 (covalent modification); type: binding; conditions: 10-fold excess of compound, 90 minutes, MALDI
T3 construct: ErbB4 kinase domain (Upstate) was incubated with compound; purchased Upstate
Description: ErbB4 kinase domain (Upstate) was incubated with compound for 90 minutes at 10-fold excess of compound I-1 to protein. 1 ul aliquots of the samples (total volume of 4.24 ul) were diluted with 10 ul of 0.1% TFA prior to micro C4 ZipTipping directly onto the MALDI target using Sinapinic acid as the desorption matrix (10 mg/ml in 0.1% TFA:Acetonitrile 50:50). For intact protein mass measurement the instrument was set in Linear mode using a pulsed extraction setting of 16,952 for the myoglobin standard used to calibrate the instrument
Intact ErbB4 protein occurs at MH+ of 35850 with corresponding sinapinic (matrix) adducts occurring about 200 Da higher. A stochiometric incorporation of the compound I-1 (Mw of 410 Da) produced a new mass peak which is approximately 410 Da higher (MH+ of 36260).

T3 sequence (Q15303 718-985 limits assumed): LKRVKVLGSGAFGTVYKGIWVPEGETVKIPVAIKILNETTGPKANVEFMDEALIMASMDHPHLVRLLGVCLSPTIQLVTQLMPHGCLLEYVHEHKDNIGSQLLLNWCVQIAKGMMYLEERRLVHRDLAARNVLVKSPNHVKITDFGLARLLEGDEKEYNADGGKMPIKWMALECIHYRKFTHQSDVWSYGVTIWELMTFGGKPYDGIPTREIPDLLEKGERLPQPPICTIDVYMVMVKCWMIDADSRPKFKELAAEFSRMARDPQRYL

reactivity with EGFR mutant (C797S) by intact mass [1]: no significant reactivity
reactivity with EGFR wild type by intact mass [2]: single site covalent modification
modification of ErbB4 by intact mass [4]: covalent modification of ErbB4
SMILES: C=CC(=O)Nc1cccc(Nc2cc(Nc3cccc(Br)c3)ncn2)c1 [I-1, N-{3-[6-(3-bromophenylamino)-pyrimidin-4-ylamino]-phenyl}-2-propenamide]
enzyme inhibition after washout ([3]; A431 cells, 1 μM for 1 hr, washout, EGF stimulation): maintains enzyme inhibition
type of binding to ErbB1 (irreversible / reversible) ([3]; washout experiment, FIG. 2): irreversibly binds to ErbB1

— patent US9296704B2, “Substituted pyrimidines as protein kinase inhibitors” (CELGENE AVILOMICS RESEARCH, INC., priority 2007, dated 2016)
